Here are results for 28 compounds from patent US20180319865A1, “Identification of Novel Small Molecule Beta2 Integrin Agonists” (Rush University Medical Center, priority 2016, published 2018).

This experiment addresses T1, mutant integrin CD11bE320A/CD18 (Homo sapiens, UniProt P11215, E336A).
T1 construct: expressed in transfected cells; host or cells: K562 (ATCC)
As to the kind of experiment: HTS cell adhesion assay, K562 E320A cells on immobilized fibrinogen. The experiment is classed as cell-based. The note with it: Table 3, adhesion to fibrinogen, five point dose-response. As to the method:
K562 cells stably expressing CD11c/CD18 (K562 CD11c/CD18) were generated similarly. […] K562 cells stably transfected with mutant integrin CD11bE320A/CD18 (K562 E320A) were generated according to literature protocols. All cell lines were maintained in Iscove's Modified Dulbecco's Medium (IMDM) supplemented with 10% heat-inactivated fetal bovine serum, 50 IU/mL penicillin and streptomycin and 0.5 mg/mL G418.
Cell adhesion assays with immobilized ligands were performed using the general protocol previously described and as illustrated in FIG. 1 [33]. Assays with all different K562 cell lines (K562, K562 CD11b/CD18, K562 CD11c/CD18 and K562 E320A) were performed in an identical fashion. Briefly, 384-well microplates (Corning 3700) were coated with 15 μg/mL fibrinogen (Fg) ligand in PBS^++ overnight at 4° C. At the same time, anti-CD18 (IB4) mAb was also coated. Subsequently, the coated wells were washed with 1% nonfat milk in TBS at room temperature for 1 hour. Next, the wells were washed 3 times with TBS, and the coated microplates were used in the HTS assays.
K562 CD11b/CD18, K562 CD11bE320A/CD18 and K562 CD11c/CD18 cells were washed with TBS, and cells were transferred to the Fg-coated wells of microplates in the assay buffer (Ca^2+ and Mg^2+ for physiological condition, Mn^2+ as the Positive control). A 1 μL aliquot of the compounds were transferred to each washed well with multichannel pipet from the 384-well plates.
The assay plates were incubated at 37° C. in the presence of small-molecule compounds for 30 min. To dislodge the non-adherent cell, the assay plates were gently inverted and kept in inverted position for 20 min at room temperature.
The cells were fixed with 37% formaldehyde in a small volume and the plates were kept inverted for 1 h. Upon the fixation, the solutions in the well were discarded. Next, the cells were fluorescently labeled with DAPI (0.5 μM final in TBS with 0.1% Triton X-100) and the quantitated with “Opera High Content Screening System” (Perkin Elmer).
Cell-adhesion under positive and negative control conditions was used to define the activity scale; signal corresponding to the number of non-small molecule treated cells adherent in activating buffer condition (in the presence of Mn^2+ ions as agonist, PC) was considered maximum (100% binding) and the signal corresponding to the number of non-small molecule treated cells adherent in basal buffer condition (in the presence of 1 mM each of Ca^2+ and Mg^2+, NC) was considered minimum (0% binding).

Each structure is given as a SMILES string.

T1 sequence (P11215 17-1152 E336A): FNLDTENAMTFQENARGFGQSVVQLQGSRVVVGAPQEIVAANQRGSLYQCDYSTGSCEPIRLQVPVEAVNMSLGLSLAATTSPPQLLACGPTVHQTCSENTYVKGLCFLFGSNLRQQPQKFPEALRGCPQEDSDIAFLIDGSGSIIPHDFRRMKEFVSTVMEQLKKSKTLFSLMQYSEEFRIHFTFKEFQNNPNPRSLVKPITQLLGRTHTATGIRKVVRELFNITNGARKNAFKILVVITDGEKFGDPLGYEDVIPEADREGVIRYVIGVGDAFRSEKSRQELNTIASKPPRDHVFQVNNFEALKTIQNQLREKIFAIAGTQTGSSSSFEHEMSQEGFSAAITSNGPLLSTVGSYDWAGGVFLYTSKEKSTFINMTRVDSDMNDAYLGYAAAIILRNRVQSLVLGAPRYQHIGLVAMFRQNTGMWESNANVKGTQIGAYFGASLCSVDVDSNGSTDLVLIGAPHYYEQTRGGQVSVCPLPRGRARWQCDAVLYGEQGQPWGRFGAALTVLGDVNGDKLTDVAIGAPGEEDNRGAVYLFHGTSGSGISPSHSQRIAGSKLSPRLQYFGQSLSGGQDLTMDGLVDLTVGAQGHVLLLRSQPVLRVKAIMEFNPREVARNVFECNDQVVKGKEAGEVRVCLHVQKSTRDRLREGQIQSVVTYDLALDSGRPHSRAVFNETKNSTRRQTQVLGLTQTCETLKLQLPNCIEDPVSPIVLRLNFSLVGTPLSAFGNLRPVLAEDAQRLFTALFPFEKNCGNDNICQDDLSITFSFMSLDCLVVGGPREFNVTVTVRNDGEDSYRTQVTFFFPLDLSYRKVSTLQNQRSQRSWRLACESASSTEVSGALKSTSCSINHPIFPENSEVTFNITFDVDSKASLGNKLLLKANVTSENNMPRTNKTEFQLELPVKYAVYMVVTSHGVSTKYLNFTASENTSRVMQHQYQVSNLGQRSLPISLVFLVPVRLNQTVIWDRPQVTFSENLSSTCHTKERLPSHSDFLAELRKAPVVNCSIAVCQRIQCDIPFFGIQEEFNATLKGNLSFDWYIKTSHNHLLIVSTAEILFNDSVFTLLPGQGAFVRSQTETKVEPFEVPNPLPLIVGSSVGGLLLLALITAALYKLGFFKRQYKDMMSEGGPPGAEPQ
T1 sequence (P05107 23-769 partner): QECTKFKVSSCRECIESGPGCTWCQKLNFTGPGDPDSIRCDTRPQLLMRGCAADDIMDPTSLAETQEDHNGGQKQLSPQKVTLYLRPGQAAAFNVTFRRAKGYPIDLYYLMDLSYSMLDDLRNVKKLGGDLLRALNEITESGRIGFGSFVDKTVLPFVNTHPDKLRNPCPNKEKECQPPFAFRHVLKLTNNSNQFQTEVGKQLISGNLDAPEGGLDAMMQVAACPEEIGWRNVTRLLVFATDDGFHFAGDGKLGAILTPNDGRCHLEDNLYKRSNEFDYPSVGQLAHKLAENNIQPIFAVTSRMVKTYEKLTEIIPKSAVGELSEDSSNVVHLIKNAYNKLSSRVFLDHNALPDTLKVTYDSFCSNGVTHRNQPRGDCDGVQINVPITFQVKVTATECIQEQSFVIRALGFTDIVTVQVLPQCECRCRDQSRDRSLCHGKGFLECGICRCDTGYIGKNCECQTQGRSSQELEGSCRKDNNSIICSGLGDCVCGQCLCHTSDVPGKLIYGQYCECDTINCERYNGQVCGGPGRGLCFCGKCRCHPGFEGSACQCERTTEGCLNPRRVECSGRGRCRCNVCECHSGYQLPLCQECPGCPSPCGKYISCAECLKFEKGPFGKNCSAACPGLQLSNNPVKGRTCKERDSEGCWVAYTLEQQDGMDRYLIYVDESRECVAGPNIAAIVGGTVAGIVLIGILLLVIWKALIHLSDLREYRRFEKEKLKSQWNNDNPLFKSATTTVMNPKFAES

On to `CC(=O)c1ccc(NC(=O)CSc2ccc(-c3ccc4c(c3)OCO4)nn2)cc1` [Compound 7206282], for which the EC50 (as a rule, the midpoint of the concentration-response curve) was found to be 10.7 µM. This lies in the double-digit micromolar range.
Still for that read-out and setting: next, `CCOc1cc(/C=C2/N=C(c3ccc(C(C)(C)C)cc3)OC2=O)cc(Cl)c1OS(C)(=O)=O` [Compound 2182821]: 8.51 µM; `COc1ccc(C(=O)CSc2nnc(NC(=O)C3CC(=O)N(c4ccccc4)C3)s2)cc1` (stereo not shown) [Compound 12006105]: 9.85 µM; `Cc1ccc(-c2cc(C(=O)N/N=C/C=C/c3ccco3)c3ccccc3n2)cc1C` [Compound 1764811]: 19.3 µM.
Still for that read-out and setting: the result for `COc1ccccc1-c1cc(C(=O)Nc2sc3c(c2C#N)CCC(C)C3)c2ccccc2n1` (stereo not shown) [Compound 3272728] reads 10.8 µM; that for `O=c1cc(CN2CCN(c3cccc(Cl)c3)CC2)c2cc(O)c(-c3ccccc3)cc2o1` [Compound 3287222], 16.5 µM; that for `CCS(=O)(=O)N1CCC(C(=O)NCCCN2CCCCCC2)CC1` [Compound 3244583], 9.7 µM.
Consider `O=C(Cn1c2ccccc2c(=O)c2ccccc21)N/N=C/c1ccc(N2CCCC2)c([N+](=O)[O-])c1` [Compound 5347156], for which the response was half-maximal at 13.7 µM (EC50).
On the same count and under the same terms, the result for `Cc1cc(C)c(NC(=O)Cn2c(=O)n(Cc3ccco3)c(=O)c3ccccc32)c(C)c1` [Compound 3237376] reads 12.2 µM; that for `O=C(CNC(=O)c1cc2c(s1)CCC2)Nc1ccccc1Br` [Compound 2537029], 8760 µM; that for `COc1ccc(/C=N/NC(=O)C2c3ccccc3-c3ccccc32)cc1` [Compound 9557044], 10.5 µM.
`O=C(CNS(=O)(=O)c1cccc(Cl)c1)Nc1ccc(-c2nc3ccccc3s2)cc1` [Compound 984329] showed a half-maximal effective concentration (EC50) of 9.23 µM.
Take `Cc1cc(=O)oc2cc(OCC(=O)N/N=C/c3ccccc3[N+](=O)[O-])ccc12` [Compound 9619223]: the EC50 turned out to be 35.7 µM. Compared with the last compound, the EC50 is about 3.9-fold higher.
The same measure, in the same setting: the result for `Cc1ccc(NC(=O)COc2ccc(/C=C3/SC(=Nc4ccccc4)N(Cc4cccnc4)C3=O)cc2)cc1` [Compound 11840403] reads 13.4 µM; that for `O=C(Cc1coc2cc3c(cc12)CCC3)OCc1cc(=O)n2c(n1)sc1ccccc12` [Compound 3000165], 9.02 µM; that for `CCOc1ccc(C(=O)Nc2ccc(N3CCCC3)cc2)cc1` [Compound 650825], 9.86 µM.
Consider `COc1ccc2c(c1)cc(C)c1nnc(SCC(=O)N(C)c3nc(-c4ccccc4)cs3)n12` [Compound 1135734], for which a half-maximal effect (EC50) was put at 9.42 µM. The EC50 values of the last two compounds are within 1.5-fold of each other.
In turn, `O=C(Nc1ccc(Cl)cc1)[C@@H]1[C@@H]2C(=O)N(c3ccc(Cl)cc3Cl)C(=O)[C@@H]2[C@H]2C=CC=NN21` [Compound 9551824] registered an EC50 of 22.3 µM.
On the same count and under the same terms, the result for `O=C1NN(c2ccc(Cl)c(Cl)c2)C(=O)/C1=C/c1cccc(OC(=O)c2cccs2)c1` [Compound 1016780] reads 7.82 µM; that for `CN(C)c1ccc(NC(=O)Cn2ncn3c(cc4ccccc43)c2=O)cc1` [Compound 3244843], 46.2 µM; that for `COc1cccc2sc(Nc3nc(-c4cc5ccccc5oc4=O)cs3)nc12` [Compound 7109922], 8.76 µM.
Still for that read-out and setting: next, `COc1ccc(-n2c(C)cc(C(=O)COC(=O)c3cc(NC(=O)c4cccs4)c(OC)c(OC)c3)c2C)cc1` [Compound 2108710]: 62.5 µM; `CC1=NN(c2nc(-c3ccc(C)cc3)cs2)C(=O)C1N=Nc1ccc2ccccc2c1` (stereo not shown) [Compound 3101589]: 13.4 µM.
As to `CCOC(=O)c1[nH]c2ccc(Cl)cc2c1NC(=O)/C=C/c1ccc2c(c1)OCO2` [Compound 1973614], a half-maximal response (EC50) required 43.6 µM.
Same read-out and setting: next, `O=C(CC1Nc2ccccc2NC1=O)Nc1ccccc1` (stereo not shown) [Compound 2829724]: 18.3 µM.
For `Cc1ccc(/C=C/C(=O)Nc2nnc(SCc3ccc(C#N)cc3)s2)o1` [Compound 2126150], the “EC50 E320A” value is “Infinite”.
The compound `NS(=O)(=O)c1ccc(NC(=S)NC(=O)c2ccc(-c3ccccc3)cc2)cc1` [Compound 1011163] returned an EC50 of 12.9 µM.
On the same count and under the same terms, the result for `O=C(Cn1c2ccccc2c(=O)c2cc([N+](=O)[O-])ccc21)Nc1ccccc1Cl` [Compound 15944880] reads 10.1 µM.
